Assay results published in a melting point compilation (Tetko et al.; mined from patent text by program, amines drawn as free bases though some values may be those of a salt).

| Compound | melting point [°C] |
| --- | --- |
| CC1(C)Cn2c(nc3c(N)nc4ccccc4c32)CN1S(C)(=O)=O | 227 to 228 |
| Cc1sc(N2CCCCC2)nc1C=Cc1cn(-c2ccccc2)nc1O | 224 to 226 |
| O=[N+]([O-])c1ccc(S(=O)(=O)Nc2cccc3c(Cl)c[nH]c23)cc1 | 200 |
| CC1(C(F)(F)F)CCCN1C(=O)c1c(F)cccc1F (stereo not given) | 119 to 120 |
| CCCCN(CC(=O)N1c2ccccc2N(CC)C(=O)c2cnc(-c3ccccc3)nc21)C(C)(C)C | 70 to 72 |
| Cc1ccc(=O)n(C2c3cc(C#N)ccc3OC(C)(C)C2O)n1 (stereo not given) | > 257 |
| N#CNc1nnc(-c2ccccc2Nc2cccc(C(F)(F)F)c2)o1 | > 230 |
| CCC(O)c1cc(C(=O)OC)c(NC(C)=O)cc1C(F)(F)F (stereo not given) | 120 to 122 |
| O=C(Oc1ccccc1)N1CCC2(CC1)SC(c1ccccc1F)c1ccccc12 (stereo not given) | 122 to 123 |
| CC(C)Cc1ccc(C2(c3ccccc3)OC(=O)C(O)=C2O)cc1 (stereo not given) | 138 to 139 |
| CCOC(=O)c1cn(-c2cccc(Oc3ccc([N+](=O)[O-])cc3)c2)cn1 | 162 to 163 |
| COc1ccc(CN2Cc3cncn3C(c3ccc(Br)cc3)C2=O)cc1 (stereo not given) | 123 to 124 |
| C=C(C)C(=O)N=c1ccn(-c2ccccc2)nc1 | 136 |
| Brc1ccc(OC2CCOCC2)cc1 | 53 to 55 |
| Cc1ccc(OC(=O)C=Cc2ccc([N+](=O)[O-])cc2)cc1 | 168 to 170 |
| CCOC(=O)c1nc2ccccc2nc1CC | 53 to 54 |
| COc1cc2c(cc1OC)N(C(=O)OCc1ccccc1)C(C)CC2=O (stereo not given) | 128 to 130 |
| CCC(=O)NCCc1c(-c2ccccc2)nn2ccc3occc3c12 | 161 to 163 |
| Oc1ccc(C(=C2CCCCCC2)c2ccc(Br)cc2)cc1F | 102 to 104 |

| Compound | melting point [°C] |
| --- | --- |
| CC(=O)c1c(NC(=O)c2ccc([N+](=O)[O-])cc2)cccc1C(F)(F)F | 245 |
| Clc1ccc2nc(CN3CCc4ccccc4C3)[nH]c2c1 | 204 to 206 |
| Cc1ccccc1-c1nc2c3ccccc3ccn2c1NC(C)c1ccccc1 (stereo not given) | 160 to 162 |
| CCOC(=O)c1cn(-c2ccc(F)c(OC)c2)c2c(Cl)c(F)c(F)cc2c1=O | 245 to 246 |
| Cc1ccccc1-c1ccc(C(=O)N2Cc3ccc(C(=O)NCc4cccc(N)c4)n3Cc3ccccc32)cc1C | 105 to 115 |
| CNS(=O)(=O)c1cn(C)c2cc(Cl)ccc2c1=O | 220 to 223 |
| O=C(Nc1ccc(I)cc1)c1ccccc1-c1ccc(C(F)(F)F)cc1 | 147 |
| O=C1c2cccc3cccc(c23)C(=O)N1C1OC(CO)C(O)C(O)C1O (stereo not given) | 285 to 286 |
| Cc1cc(Cl)cc(NC(=O)Cc2ccc(OC3(C(=O)O)CCC(C)C3)cc2)c1 (stereo not given) | 164 to 166 |
| CN(O)C(=O)Nc1c(C(=O)c2ccccc2)[nH]c2cc(Cl)ccc12 | 208 to 214 |
| N#Cc1ccccc1Cn1cc(-c2ccnc(NCCCO)n2)n(-c2ccc(F)cc2)c1=O | 166 to 167 |
| COC1=C(C(=O)c2ccc(Cl)cc2Cl)C(=O)CCC1 | 81 to 86 |
| CN(C)S(=O)(=O)CCCOc1ccc2ncnn2n1 | 151 to 153 |
| CC(C)(C)OC(=O)NC[C@H](O)CC(=O)NN | 144 |
| CCCc1cc(C(O)=S)cc([N+](=O)[O-])c1-c1ccccc1 | 178 to 180 |
| CC(=O)Nc1ccc(OC(=O)C2CCc3c(c4ccccc4n3C(=O)c3ccccc3)C2)cc1 (stereo not given) | 166 to 168 |
| CCNCC1CCN(c2c(F)cc3c(=O)c(C(=O)O)cn(C4CCC4)c3c2F)C1 (stereo not given) | 223 to 225 |
| CCCCCNc1nc(NC(C)C)c2ncn(CC(=O)O)c2n1 | 173 to 176 |
| CCCc1nc(C(C)(C)O)c(C(=O)OCOC(=O)C(C)(C)C)n1Cc1ccc(-c2ccccc2C(=O)O)cc1 | 170 to 173 |

| Compound | melting point [°C] |
| --- | --- |
| Cc1nnc2n1-c1ccccc1C(c1ccccc1Cl)=NC2 | 212 to 213 |
| Cc1cc(C(=O)c2[nH]c3cc(Cl)ccc3c2CC(=O)O)no1 | 227 to 229 |
| CCOC(=O)c1c(O)c2cc(C)ccc2[nH]c1=O | 242 |
| N#Cc1n[nH]c2nc(N3CCN(CCO)CC3)ccc12 | 232 to 233 |
| COC(=O)C1CC(C#N)(c2ccccc2Cl)CCC1=O (stereo not given) | 113 to 118 |
| COC(=O)c1csnc1-c1cc(C(F)(F)F)cc(C(F)(F)F)c1 | 45 to 46.5 |
| COc1ccc(Cc2c(NC(C)C(C)(C)C)c(=O)c2=O)cc1 (stereo not given) | 137 to 138 |
| CCCc1nc2c(N)nc3ccccc3c2n1CCCCN(O)C(=O)NC(C)C | 158 to 160 |
| CON=C(Nc1nc(OC)nc(OC)n1)NS(=O)(=O)c1ccccc1-c1ccccc1 | 189 to 190 |
| CC(=O)Nc1c(-c2ccccc2)nn2ccccc12 | 188 to 189 |
| CN1C(=O)CCC2(C)c3ccc(-c4cccs4)cc3CCC12 (stereo not given) | 193 to 195 |
| O=C(c1cccc(Cl)c1)c1sc2cc(O)ccc2c1-c1ccccc1 | 215 |
| Cc1cccc(C)c1NCCCCn1ccnc1 | 146 to 147 |
| O=P(O)(O)Cc1ccccc1-c1ccccc1 | 168 to 169 |
| CCC(=O)C=Cc1ccc(OCc2ccccc2)cc1 | 123 to 125 |
| CCOC(=O)CCN1CCN(C2=Nc3ccccc3Sc3ccc(Cl)cc32)CC1 | 79 to 80 |
| c1ccc(C(OC2CCN(CCCn3cnc4ccccc43)CC2)c2ccccc2)cc1 | 110 |
| O=C1c2c(O)ccc(O)c2C(=O)c2c(NCCN(CCO)CCO)ccc(NCCN(CCO)CCO)c21 | 134 to 136 |

Second part, the compound after the results:

| melting point [°C] | Compound |
| --- | --- |
| 186 to 189 | O=C1CC2CC[C@@H](CN3C(=O)c4ccccc4C3=O)OC2O1 (stereo not given in full) |
| 114 | CCc1cnc(-c2ccc(N=C=S)cc2)nc1 |
| 129 to 130 | Cn1cc(Oc2ccc(Cl)cc2Cl)c(=O)c(-c2cccc(C(F)(F)F)c2)c1 |
| 90 to 92 | O=C(O)C(OCc1ccc(-c2ccc(Cl)cc2)cc1)(C(F)(F)F)C(F)(F)F |
| 158 to 160 | CN(C)C(=O)c1cc2c(OC[C@H](O)CN3CCC(c4ccc5ccccc5c4)CC3)cccc2[nH]1 |
| 155 to 157 | O=C1c2ccccc2C(=O)N1OC/C=C/C=C/c1ccc(F)cc1 |
| 96 to 98 | Cc1ccc(S(=O)(=O)O[C@H](Cc2ccccc2)C(=O)NCCc2ocnc2C(=O)OCc2ccccc2)cc1 |
| 92 | O=S(Cc1ccccc1)c1ncc(Cl)cn1 (stereo not given) |
| 152 to 154 | CCOC(=O)C(=CNc1ccc(CO)cc1I)C(=O)OCC |
| 326 to 330 | Cc1cccc(-c2cc3cnc(N)nc3nc2NC(=O)NC(C)(C)C)c1C |
| 122 to 125 | Cn1ccc2c1CCN1C(=O)CCC21 (stereo not given) |
| 151 to 152 | O=C1C(=Cc2ccc(Cl)c(Cl)c2)CSCC1=Cc1ccc(Cl)c(Cl)c1 |
| 121 to 123 | O=C(CCCCN1CCN(c2cccc(Cl)c2Cl)CC1)N1CCc2ccccc21 |
| > 290 | O=C(O)c1cnc2cc3c(cc2c1O)OCO3 |
| 87.5 to 88.5 | CC(C)c1cccc(NC(=O)c2ccccc2C(F)(F)F)c1 |
| 107 to 110 | CCOC(=O)C1=Cc2cc(-c3ccc(C(F)(F)F)cc3)ccc2OCC1 |
| 231 to 233 | c1ccc(-c2ccc(Nc3ncc(-c4ccccc4)s3)nc2)cc1 |
| 126 to 128 | Nc1nc2ccc(Oc3ccc(F)cc3)cc2s1 |
| 231 to 232 | O=C(NC(C(=O)O)c1ccccc1)c1ccccc1SSc1ccccc1C(=O)NC(C(=O)O)c1ccccc1 (stereo not given) |
| 110 to 112 | O=C(c1ccc(O)c(F)c1)N(c1ccc(O)cc1)c1ccc(F)cc1 |
| 164 to 165 | COC(=O)c1nc(-c2csc3ccc(C)cc23)nc(N)c1Cl |
| 76 to 78 | CCC(C#N)(CC)c1nsc2ccc(-n3c(=O)cc(C(F)(F)F)n(C)c3=O)cc12 |

| melting point [°C] | Compound |
| --- | --- |
| 151 to 152 | Cc1nc(-n2cnn(Cc3ccc(OC(F)F)cc3)c2=O)sc1C(=O)NCc1cccnc1 |
| 80 to 82 | OCCC1Cc2ccccc2C1O (stereo not given) |
| 122 to 123 | CCCC[C@H]1COC(c2ccc(OCCCCCCCc3cc(C)no3)cc2)=N1 |
| 91 to 92 | COC(=O)CCn1c(=O)n2n(c1=O)C(C(=O)OC)C=CC2 (stereo not given) |
| 185 to 187 | COc1ccc(CCCC2OC(=O)NC2=O)cc1OCc1nc(-c2ccccc2)oc1C (stereo not given) |
| 80 to 81 | COc1ccc(C(O)(c2ccc(C(C)C)cc2)C(C)C)c(OC)c1 (stereo not given) |
| 288 to 291 | COC(=O)CCC(=O)Nc1ccc2c(=O)n3c(nc2c1)C(=Cc1ccccc1)CC3 |
| 120 | CCCCN(CCCC)C(=O)On1c(-c2ccccc2)nc2c3ccc4ccccc4c3ccc21 |
| 153 to 154 | O=C(O)C(Cc1ccccc1)CS(=O)C1CCCCC1 (stereo not given) |
| 161 to 162 | COc1cccc(C=C(NC=O)c2ccncc2)c1OC |
| 96 to 98 | CCN1c2ncc(COc3cccc(C(N)=O)c3)cc2C(=O)N(C)c2ccc(Cl)nc21 |
| 106 to 108 | O=C(NC1CCc2ccccc2C(CCCc2ccccc2)C1=O)OCc1ccccc1 (stereo not given) |
| 330 to 335 | Cc1nc2c(N)nc3ccncc3c2n1C |
| 162 to 167 | CC(C)n1nc(-c2sc(NC(=O)c3ccc(C(F)(F)F)cc3)nc2-c2ccccc2)ccc1=O |
| 149 to 150 | COc1nnc2c(=O)c3ccccc3ccn12 |
| 153 to 154 | Cc1ccccc1NC(=NC#N)NC(NC(=O)CCCc1ccccc1)C(C)(C)C (stereo not given) |
| 147 to 150 | CCc1nc2c(cnn2CC)c(NC2CCOCC2)c1CNC(=O)c1cccc(C(=O)NCc2ccc(F)c(-c3cccc(CN4CCNC(=O)C4)c3)c2)c1 |
| 59 to 60 | COC1O[C@H](CC#N)[C@H](OCc2ccccc2)[C@H]1O (stereo not given in full) |
| 236 to 240 | O=C1Cc2cc(NC(=O)C(=O)N3CCC(CCc4ccccc4)CC3)ccc2N1 |
| 121 | CCO/C(=C\c1ccc(OCCc2ccc(OCC)cc2)c(OC)c1)C(=O)O |
| 79 | OC/C(=C(\CO)c1ccccc1)c1ccccc1 |
| > 250 | CCCc1c2oc(C(=O)O)cc(=O)c2cc2c(=O)ccn(Cc3ccccc3)c12 |
